Data as given in US8101732B2, “Methods of producing validamycin A analogs and uses thereof” (State of Oregon acting by and through the State Board of …, priority 2008, dated 2012).

System: Pellicularia sasakii (=R. solani)
Experiment: Fungal growth inhibitory assay (agar plug assay)
Assay type: cell-based
Conditions: growth monitored after two days, FIG. 4
Description: Fungal growth inhibitory assay of 1,1′-bis-valienamine (3) and validienamycin (4): 1% agar (14 mL) was mixed with the compounds (dissolved in 1 mL H2O) and then plated into Petri dishes. Discs of PDA agar with mycelia of Pellicularia sasakii were placed in the center of the above plates as the indicator strain for bioassay of the compounds. The plates were incubated at 30° C. for 2 days.
Antifungal activity assays of compounds 3 and 4 were tested against Pellicularia sasakii (=R. solani) using an agar plug assay (Minagawa et al., Chembiochem 8: 632-641, 2007). Agar plugs with diameter of 5 mm and containing P. sasakii mycelia were placed in the center of agar plates that contain each compound and the growth of the pathogen was monitored after two days. Active compounds were determined based on their ability to inhibit the expansion of the fungal mycelia on the Petri dishes.

Row | SMILES | fungistatic activity (inhibition of expansion of the fungal mycelia) (lower concentration (0.02 mM) in agar plate) | fungistatic activity (inhibition of expansion of the fungal mycelia) (0.2 mM concentration in agar plate)
1 | OCC1=C[C@H](N[C@H]2C[C@H](CO)[C@@H](O[C@@H]3OC(CO)[C@@H](O)C(O)[C@H]3O)[C@H](O)[C@H]2O)[C@H](O)[C@@H](O)[C@@H]1O (some centres unmarked) [Compound 1, validamycin A] | the most active compound among those evaluated | –
2 | OCC1=C[C@H](N[C@H]2C=C(CO)[C@@H](O)[C@H](O)[C@H]2O)[C@H](O)[C@@H](O)[C@@H]1O [Compound 4, validienamycin] | – | comparable fungistatic activity with 1 and 2
